Data reported in patent US9669035B2, “Combinations comprising PDE 2 inhibitors such as 1-aryl-4-methyl-[1,2,4]triazolo-[4,3-A]]quinoxaline compounds and PDE 10 inhibitors for use in the treatment of neurological of metabolic disorders” (Janssen Pharmaceutica NV, priority 2012, dated 2017).
Read-outs that look alike come from different tables or passages of the source.

Columns and labels:
[1] = test system: Apomorphine-induced agitation in rats; test: Inhibition of apomorphine-induced agitation in rats (APO)
[2] = biological target: Rat recombinant PDE10A (rPDE10A2) (Rattus norvegicus (Rat), UniProt Q9QYJ6); test: In vitro assay PDE10A (SPA, 3H-cAMP); type: biochemical
Chain of Rat recombinant PDE10A (rPDE10A2) (Q9QYJ6 whole entry): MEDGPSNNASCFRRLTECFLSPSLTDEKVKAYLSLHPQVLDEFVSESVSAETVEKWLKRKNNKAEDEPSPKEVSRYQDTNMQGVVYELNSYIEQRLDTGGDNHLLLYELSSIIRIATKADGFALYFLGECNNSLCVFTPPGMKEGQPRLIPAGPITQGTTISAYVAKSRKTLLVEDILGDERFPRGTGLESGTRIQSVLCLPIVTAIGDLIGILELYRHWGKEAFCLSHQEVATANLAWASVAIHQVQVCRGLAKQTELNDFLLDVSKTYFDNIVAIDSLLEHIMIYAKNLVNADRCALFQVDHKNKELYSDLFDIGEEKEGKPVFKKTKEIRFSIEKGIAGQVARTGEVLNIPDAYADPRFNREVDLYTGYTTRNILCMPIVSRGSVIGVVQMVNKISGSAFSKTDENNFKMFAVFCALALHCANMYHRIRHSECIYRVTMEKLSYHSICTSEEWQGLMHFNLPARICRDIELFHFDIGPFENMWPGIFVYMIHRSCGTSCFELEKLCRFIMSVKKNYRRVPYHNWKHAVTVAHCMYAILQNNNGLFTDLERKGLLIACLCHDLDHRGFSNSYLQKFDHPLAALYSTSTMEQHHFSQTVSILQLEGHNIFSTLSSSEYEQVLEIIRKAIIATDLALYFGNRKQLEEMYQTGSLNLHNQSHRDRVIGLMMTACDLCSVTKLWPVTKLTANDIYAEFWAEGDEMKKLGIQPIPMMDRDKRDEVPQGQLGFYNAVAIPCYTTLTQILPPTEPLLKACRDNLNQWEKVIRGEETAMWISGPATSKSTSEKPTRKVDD

[3] = test system: d-Amphetamine-induced hyperlocomotion in rats; test: Inhibition of d-amphetamine-induced hyperlocomotion in rats in combination with Compound A and Compound B (FIGS. 9, 10); type: in vivo; conditions: Rattus norvegicus, sc
Description: (§1) Shown are individual values (open and closed circles for PDE2-i at 0 and 10 mg/kg, respectively) and median values (horizontal lines) for distance traveled per dose group. The dotted horizontal lines represent the criteria adopted for drug-induced effects (<5500 and <1100 cm). In FIG. 9: * p<0.05, ** p<0.01, *** p<0.001 (Bonferroni posttests 0 vs 10 mg/kg).
The dotted horizontal lines represent the critical levels for drug-induced effects (<5500 cm and <1100 cm).
as §1, with “[…] This is also reflected in the listed ED50 values.” for “In FIG. 9: * p<0.05, ** p<0.01, *** p<0.001 (Bonferroni posttests 0 vs 10 mg/kg).”

[4] = test system: Apomorphine-induced agitation in rats; test: Inhibition of apomorphine-induced agitation in rats in combination with Compound A and Compound B (FIGS. 4, 5); type: in vivo; conditions: Rattus norvegicus, sc
Description: Shown are individual scores (open and closed circles for PDE2-i at 0 and 10 mg/kg, respectively) and median scores (horizontal lines) for agitation per dose group. In FIG. 4: * p<0.05, ** p<0.01, *** p<0.001 (Bonferroni posttests 0 vs 10 mg/kg).
In FIG. 5: * p<0.05 (Dunnett's Multiple Comparison Test vs. 0 mg/kg)
Shown are individual scores (open and closed circles for PDE2-i at 0 and 10 mg/kg, respectively) and median scores (horizontal lines) for agitation per dose group. […] This is also reflected in the listed ED50 values.

[5] = test system: d-Amphetamine-induced hyperlocomotion in rats; test: d-Amphetamine-induced hyperlocomotion in rats: potentiation of the effect of MP-10; type: in vivo, rat; conditions: d-amphetamine (1.25 mg/kg, s.c.) + MP-10 (2.5 mg/kg, s.c.)
[6] = test system: Apomorphine-induced agitation in rats; test: Inhibition of apomorphine-induced agitation in rats in combination with MP-10; type: in vivo, rat; conditions: SC, MP-10 (0.63 mg/kg) + apomorphine (1.0 mg/kg) i.v.
Description: Inhibition of Apomorphine-induced Agitation in Rats in combination with MP-10 but the animals were simultaneously challenged with MP-10 (0.63 mg/kg) in addition to apomorphine (1.0 mg/kg) via one injection (2 ml/kg, i.v.), at a fixed time interval (standard 1 h) after s.c. or p.o. dosing of test compound or solvent. Twelve times, every 5 min, the intensity of agitation was scored 0 to 3.

[7] = read-out: ED50 (95% confidence limits) for reducing distance traveled to <1100 cm, PDE10-i s.c., -1 h, co-treatment with B-1a 0 mg/kg
[8] = read-out: ED50 (95% confidence limits) for reducing distance traveled to <1100 cm, PDE10-i s.c., -1 h, co-treatment with B-1a 10 mg/kg s.c.
[9] = read-out: ED50 (95% confidence limits) for reducing distance traveled to <5500 cm, PDE10-i s.c., -1 h, co-treatment with B-1a 0 mg/kg
[10] = read-out: ED50 (95% confidence limits) for reducing distance traveled to <5500 cm, PDE10-i s.c., -1 h, co-treatment with B-1a 10 mg/kg s.c.
[11] = read-out: ED50 (95% confidence limits) for reducing agitation score to <5, PDE10-i s.c., -1 h, co-treatment with B-1a 0 mg/kg
[12] = read-out: ED50 (95% confidence limits) for reducing agitation score to <5, PDE10-i s.c., -1 h, co-treatment with B-1a 10 mg/kg s.c.
[13] = read-out: ED50 (95% confidence limits) for reducing agitation score to <10, PDE10-i s.c., -1 h, co-treatment with B-1a 0 mg/kg
[14] = read-out: ED50 (95% confidence limits) for reducing agitation score to <10, PDE10-i s.c., -1 h, co-treatment with B-1a 10 mg/kg s.c.
[15] = read-out: ED50 (95% confidence limits) for reducing agitation score to <21, PDE10-i s.c., -1 h, co-treatment with B-1a 0 mg/kg
[16] = read-out: ED50 (95% confidence limits) for reducing agitation score to <21, PDE10-i s.c., -1 h, co-treatment with B-1a 10 mg/kg s.c.
[17] = SC, lowest dose at which >=67% tested animals respond

## COc1ccc(Cl)c(-c2nnc3c(C)nc4ccc(CN5CCOCC5)cc4n23)c1 [Compound B-10]
[1]; PO
  Dose at Max Effect: 10
[1]; PO, at the dose of column Dose at Max Effect
  Max effect (lowest median cumulative agitation score): 21
[1]; rat, in vivo
  LAD (lowest active dose): >10
[2]; -log IC50 expressed in mol/L
  PIC50 PDE10: 6.98

## COCCc1ccc(-c2c(C)nc3c(N4CCOCC4)ccnn23)cn1 [Compound A]
[3]; [7]
  ED50: > 40 mg/kg
[3]; [8]
  ED50: 6.2 mg/kg
[3]; [9]
  ED50: 0.89 mg/kg
[3]; [10]
  ED50: 0.67 mg/kg
[4]; [11]
  ED50: ≥ 40 mg/kg
[4]; [12]
  ED50: 12.4 mg/kg
[4]; [13]
  ED50: 16.3 mg/kg
[4]; [14]
  ED50: 6.2 mg/kg
[4]; [15]
  ED50: 2.71 mg/kg
[4]; [16]
  ED50: 3.1 mg/kg

## CCCOc1ccc(Cl)c(-c2nnc3c(C)nc4ccc(CN(C)C)cc4n23)c1 [Compound B-15]
[2]
  PIC50 PDE10: 5.83

## CCCCOc1ccc(Cl)c(-c2nnc3c(C)nc4ccc(CNC)cc4n23)c1 [Compound B-25]
[5]; SC, Time -60, dose 10
  Distance Total <2500 cm Effect: 3921 cm
[2]
  PIC50 PDE10: 5.04

## Cc1nc2ccc(CN(C)C)cc2n2c(-c3cc(OC(C)C)ccc3Cl)nnc12 [Compound B-17]
[5]; SC, Time -60, dose 2.5
  Distance Total <2500 cm Effect: 4133 cm
[5]; SC, Time -60, dose 10
  Distance Total <2500 cm Effect: 1721 cm
[6]; Time 60, dose 10
  Inh. of agitation < 10 Effect (cumulative agitation score): 12
[2]
  PIC50 PDE10: 5.8

## Cc1nc2ccc(CN3CCOCC3)cc2n2c(-c3cc(OC(C)C)ccc3Cl)nnc12 [Compound B-6]
[5]; PO, Time -60, dose 10
  Distance Total <2500 cm Effect: 5033 cm
[5]; SC, Time -60, dose 0.63
  Distance Total <2500 cm Effect: 3096 cm
[5]; SC, Time -60, dose 2.5
  Distance Total <2500 cm Effect: 1206 cm
[5]; SC, Time -60, dose 10
  Distance Total <2500 cm Effect: 743.7 cm
[6]; Time 60, dose 2.5
  Inh. of agitation < 10 Effect (cumulative agitation score): 13
[6]; Time 60, dose 10
  Inh. of agitation < 10 Effect (cumulative agitation score): 1
[2]; -log IC50 expressed in mol/L
  PIC50 PDE10: 5.73

## CCCCOc1cncc(-c2nnc3c(C)nc4ccc(CNC)cc4n23)c1 [Compound B-28]
[2]
  PIC50 PDE10: <5

## CCNCc1ccc2nc(C)c3nnc(-c4cc(OCC)ccc4Cl)n3c2c1 [Compound B-22a]
[2]
  PIC50 PDE10: 6.04

## CCOc1ccc(Cl)c(-c2nnc3c(C)nc4ccc(CN(C)C)cc4n23)c1 [Compound B-18]
[1]; SC
  Dose at max effect: 10
[1]; SC, at the dose at max effect
  Max effect (lowest median cumulative agitation score): 22
[1]; rat, in vivo
  LAD (lowest active dose): >10
[5]; SC, Time -60, dose 10
  Distance Total <2500 cm Effect: 3369 cm
[6]; Time 60, dose 10
  Inh. of agitation < 10 Effect (cumulative agitation score): 17
[2]
  PIC50 PDE10: 6.5

## CCNCc1ccc2nc(C)c3nnc(-c4ccccc4Cl)n3c2c1 [Compound B-4, N-{[1-(2-Chlorophenyl)-4-methyl[1,2,4]triazolo[4,3-a]quinoxalin-8-yl]methyl}-ethanamine]
[1]; SC
  Dose at max effect: 10
[1]; SC, at the dose at max effect
  Max effect (lowest median cumulative agitation score): 21
[1]; [17]
  LAD (lowest active dose): >10
[2]; -log IC50 expressed in mol/L
  PIC50 PDE10: 6.8

## CCCCOc1ccc(Cl)c(-c2nnc3c(C)nc4ccc(CNC(C)C)cc4n23)c1 [Compound B-20]
[2]
  PIC50 PDE10: 5.38

## CCCOc1ccc(Cl)c(-c2nnc3c(C)nc4ccc(CNCC)cc4n23)c1 [Compound B-14]
[2]
  PIC50 PDE10: 5.75

## CCCOc1cncc(-c2nnc3c(C)nc4ccc(CNCC)cc4n23)c1 [Compound B-24]
[2]
  PIC50 PDE10: <5

## CCCOc1cncc(-c2nnc3c(C)nc4ccc(CN5CCOCC5)cc4n23)c1 [Compound B-16]
[2]; -log IC50 expressed in mol/L
  PIC50 PDE10: 5.21

## CCNCc1ccc2nc(C)c3nnc(-c4cc(OC(C)C)ccc4Cl)n3c2c1 [Compound B-19]
[2]
  PIC50 PDE10: 5.07

## CCNCc1ccc2nc(C)c3nnc(-c4cncc(OCC5CC5)c4)n3c2c1 [Compound B-32]
[2]
  PIC50 PDE10: <5

## CCCCOc1cc(-c2nnc3c(C)nc4ccc(CN5CCOCC5)cc4n23)cnc1Cl [Compound B-29]
[2]; -log IC50 expressed in mol/L
  PIC50 PDE10: <5

## Cc1nc2c(N3CCOCC3)nccn2c1-c1ccc(C2CCOCC2)nc1 [Compound B]
[3]; [7]
  ED50: > 40 mg/kg
[3]; [8]
  ED50: 16.3 mg/kg
[3]; [9]
  ED50: 3.1 mg/kg
[3]; [10]
  ED50: 2.04 mg/kg
[4]; [11]
  ED50: ≥ 40 mg/kg
[4]; [12]
  ED50: 10.8 mg/kg
[4]; [13]
  ED50: 32 mg/kg
[4]; [14]
  ED50: 6.2 mg/kg
[4]; [15]
  ED50: 2.71 mg/kg
[4]; [16]
  ED50: 2.36 mg/kg

## CCOc1ccc(Cl)c(-c2nnc3c(C)nc4ccc(CN5CCOCC5)cc4n23)c1 [Compound B-7]
[1]; SC
  Dose at max effect: 10
[1]; SC, at the dose at max effect
  Max effect (lowest median cumulative agitation score): 24
[1]; [17]
  LAD (lowest active dose): >10
[2]; -log IC50 expressed in mol/L
  PIC50 PDE10: 6.58

## Cc1nc2ccc(CN3CCOCC3)cc2n2c(-c3cc(F)ccc3Cl)nnc12 [Compound B-9]
[1]; SC
  Dose at max effect: 10
[1]; SC, at the dose at max effect
  Max effect (lowest median cumulative agitation score): 9
[1]; rat, in vivo
  LAD (lowest active dose): 2.5
[2]; -log IC50 expressed in mol/L
  PIC50 PDE10: 7.07

## CCCOc1ccc(Cl)c(-c2nnc3c(C)nc4ccc(CN5CCOCC5)cc4n23)c1 [Compound B-8]
[1]; SC
  Dose at max effect: 10
[1]; SC, at the dose at max effect
  Max effect (lowest median cumulative agitation score): 23
[1]; [17]
  LAD (lowest active dose): >10
[2]; -log IC50 expressed in mol/L
  PIC50 PDE10: 6.49

## CCCCOc1cncc(-c2nnc3c(C)nc4ccc(CNC(C)C)cc4n23)c1 [Compound B-23]
[2]
  PIC50 PDE10: <5

## Cc1nc2ccc(CNC(C)C)cc2n2c(-c3cncc(OCC4CC4)c3)nnc12 [Compound B-31]
[2]
  PIC50 PDE10: 5.84

## CCCCOc1ccc(Cl)c(-c2nnc3c(C)nc4ccc(CN5CCOCC5)cc4n23)c1.Cl [Compound B-2, 1-(5-Butoxy-2-chlorophenyl)-4-methyl-8-(morpholin-4-ylmethyl) [1,2,4]triazolo-[4,3-a]quinoxaline hydrochloride]
[2]; -log IC50 expressed in mol/L
  PIC50 PDE10: 5.79

## Cc1nc2ccc(CN3CCOCC3)cc2n2c(-c3cncc(OCC4CC4)c3)nnc12 [Compound B-26]
[5]; SC, Time -60, dose 2.5
  Distance Total <2500 cm Effect: 3061 cm
[5]; SC, Time -60, dose 10
  Distance Total <2500 cm Effect: 1653 cm
[6]; Time 60, dose 10
  Inh. of agitation < 10 Effect (cumulative agitation score): 17
[2]; -log IC50 expressed in mol/L
  PIC50 PDE10: 5.44

## CCCCOc1cncc(-c2nnc3c(C)nc4ccc(CNCC)cc4n23)c1 [Compound B-21]
[2]
  PIC50 PDE10: <5

## Cc1nc2ccc(CN3CCOCC3)cc2n2c(-c3c(F)cccc3Cl)nnc12 [Compound B-5, 1-(2-Chloro-6-fluorophenyl)-4-methyl-8-(morpholin-4-ylmethyl) [1,2,4]triazolo[4,3-a]quinoxaline]
[1]; SC
  Dose at max effect: 40
[1]; SC, at the dose at max effect
  Max effect (lowest median cumulative agitation score): 1
[1]; [17]
  LAD (lowest active dose): 0.63

## Cc1nc2ccc(CN(C)C)cc2n2c(-c3cncc(OCC4CC4)c3)nnc12 [Compound B-30]
[2]
  PIC50 PDE10: <5

## Cc1nc2ccc(CN(C)C)cc2n2c(-c3ccccc3Cl)nnc12 [Compound B-13]
[1]; SC
  Dose at max effect: 10
[1]; SC, at the dose at max effect
  Max effect (lowest median cumulative agitation score): 20.5
[1]; rat, in vivo
  LAD (lowest active dose): >10
[2]; -log IC50 expressed in mol/L
  PIC50 PDE10: 6.97

## COc1cncc(-c2nnc3c(C)nc4ccc(CN5CCOCC5)cc4n23)c1 [Compound B-12]
[1]; SC
  Dose at max effect: 10
[1]; SC, at the dose at max effect
  Max effect (lowest median cumulative agitation score): 21
[1]; [17]
  LAD (lowest active dose): >10
[2]; -log IC50 expressed in mol/L
  PIC50 PDE10: 6.57
